In patent US20160310524A1, “COMPOSITIONS AND METHODS FOR TREATING DYSREGULATED SYSTEMS” (priority 2013, published 2016):

Experiments:
Type in all cases: in vivo
[1] = tested on: patients where involvement with glutamate is suspected; test: Low dose (Trojan horse) treatment of patients where involvement with glutamate is suspected
Source text: For example one of the stimulating systems in the body is the glutamate receptor mechanism. Some of the biggest challenges in neuropsychiatric pharmacology is breaking through the defenses of these “buffered” systems like NMDA. The “Trojan horses” can enter into the receptor mechanism and change it without disturbing the situation. This explains why certain diseases that are not well treated, such as autism, have responded to any number of treatments but none of them consistently. If the balance between more autistic and less autistic behavior is very much leaning toward improved socialization, then perhaps any “Trojan horse” that can slip past the “fortress” of the glutamate receptors that are refusing to participate may add enough positive to affect socialization and the child has a miraculous response to the minute dose of medicine.
Examples: low dose Abilify and mecamylamine have been successful in treating patients where involvement with glutamate is suspected. Indeed we have few disorders that are known to be caused by glutamate despite the large role it plays in brain function. One medication that has been used for several years is Mematine, which is supposed to help memory in patients with Alzheimer's. […] Another example is the destructive flashbacks seen when individuals have taken PCP. […]

[2] = tested on: subject with dissociation disorder; test: Example protocol for memantine (Namenda) in dissociation disorder: sample chart for an example patient
Procedure: Example Protocol for Memantine (Namenda®)
Day 1: Give Namenda ½ of a 5 mg tablet in the morning.
Day 2: If the patient has absolutely no positive change in their behavior in the form of genuine social interactions, give another ½ of a 5 mg tablet in the morning.
Day 3: No matter what happened, give no Namenda on Day 3.
If there has been no improvement, give ½ of a 5 mg tablet in the morning.
Day 5: If there has been no improvement since Day 1, give ½ of a 5 mg tablet in the morning.
Day 6: No matter what happens, give no Namenda on Day 6.
Day 7: If there has been only minimal improvement after a total of 7.5 mg of Namenda, give ½ of a 5 mg Namenda. If there has been no improvement after a total of 10 mg of Namenda, give ½ of a 5 mg Namenda. Otherwise, give no Namenda on Day 7. […]
Here is a sample chart for an example patient following the steps and a plan for week 2. […]
Side effects of Namenda: how to know if the dose is too high. The negative social effects of Namenda can be described as disinhibitory. This mean that the person's normal understanding of personal boundaries with others is lost—i.e., the patient loses their inhibition like someone who is intoxicated. They may be excessively aggressive both verbally and physically about incidental matters. They may become intrusive into other people's business. They may become flirtatious or aggressive. If a person has any of these behaviors it most likely means that the Namenda dose is getting too high.

[3] = Effect of memantine on socialization in people; settings: in many people
[4] = tested on: seizure patient with rage behavior; test: Case number 2: seizure patient with rage behavior
Procedure: The patient had been on a large dose thioridazine (400 mg/day).
One drives fear and involves beta-receptors. The other drives aggression and involves alpha-receptors.

[5] = tested on: schizophrenic acute psychosis patients and patients having autism spectrum social disorder; test: Mecamylamine in patients with schizophrenic acute psychosis or autism spectrum social disorder: verbal communication
Procedure: In some embodiments, the effective dose of mecamylamine is 0.025 mg/kg to about 0.125 mg/kg twice a week. In some cases, the effective dose of mecamylamine in schizophrenic acute psychosis patients and patients having autism spectrum social disorder results in improved verbal communication from 50 to 150%. In some embodiments, one dose may have an effect of improved verbal communication up to two months.

[6] = Day 1, dose given ½ of a 5 mg Namenda
[7] = Day 2, dose given ½ of a 5 mg Namenda
[8] = Day 5, dose given ½ of a 5 mg Namenda

O=C1CCc2ccc(OCCCCN3CCN(c4cccc(Cl)c4Cl)CC3)cc2N1 [Abilify, aripiprazole]
success of treatment [1]: successful

CC12CC3CC(C)(C1)CC(N)(C3)C2 [Namenda, memantine]
Improvement [2, 6]: None
Side Effects or Disinhibition [2, 6]: None
Improvement [2, 7]: None
Side Effects or Disinhibition [2, 7]: None
Degree or Detail of Improvement ([2]; Day 3, no dose given): Spoke normally
Improvement ([2]; Day 3, no dose given): Slight
Side Effects or Disinhibition ([2]; Day 3, no dose given): None
Degree or Detail of Improvement ([2]; Day 4, no dose given): Same as Day 3
Improvement ([2]; Day 4, no dose given): Slight
Side Effects or Disinhibition ([2]; Day 4, no dose given): None
Degree or Detail of Improvement [2, 8]: Ate their meal
Improvement [2, 8]: Good
Side Effects or Disinhibition [2, 8]: None
Degree or Detail of Improvement ([2]; Day 6, no dose given): Same as Day 4
Improvement ([2]; Day 6, no dose given): Continues Good
Side Effects or Disinhibition ([2]; Day 6, no dose given): None
Improvement ([2]; Day 7, no dose given): Same
Side Effects or Disinhibition ([2]; Day 7, no dose given): None
effect on socialization [3]: increase their socialization
effect on socialization ([3]; listed as Mematine): increasing their socialization

COc1cc2nc(N3CCN(C(=O)C4COc5ccccc5O4)CC3)nc(N)c2cc1OC (stereo not drawn) [doxazosin]
effect on severe psychotic symptoms ([4]; doxazosin added, patient on propranolol and haloperidol): stopped the severe psychotic symptoms

CNC1(C)C2CCC(C2)C1(C)C (stereo not drawn) [mecamylamine]
duration of effect of improved verbal communication ([5]; one dose): up to two
duration of effect of improved verbal communication ([5]; one weekly protocol): up to 4 months
success of treatment [1]: successful

CC(C)NCC(O)COc1cccc2ccccc12 (stereo not drawn) [propranolol]
character of rage when it occurred ([4]; on propranolol, compared with before beta blocker treatment): wilder and more psychotic
frequency of rages ([4]; on the beta blocker propranolol): less frequent rages
